Measured values taken from patent US10844049B2, “GLP-1R agonists and uses thereof” (QILU REGOR THERAPEUTICS INC., priority 2018, dated 2020).

Target: GLP1R (Homo sapiens, UniProt P43220)
Assay: GLP-1R/β-Arrestin recruitment assay (PathHunter eXpress GLP1R CHO-K1 β-Arrestin GPCR Assay)
Format: cell-based
Design: host or cells: PathHunter CHO-K1 GLP1R β-Arrestin cells
Conditions: averaged Bmax, percentage of control GLP-1 (7-37), highest concentration tested
Source text: GLP-1R agonist activity with respect to β-arrestin recruitment can be determined with a cell-based functional assay using PathHuntcr eXpress GLP1R CHO-K1 β-Arrestin GPCR Assay kit (DiscovcrX Cat #93-0300E2CP0M).
The PathHunter β-Arrestin GPCR assay technology utilizes a β-galactosidase (β-gal) enzyme that is split into two fragments, the smaller Enzyme Donor (ED) and the larger Enzyme Acceptor (EA). These fragments can be fused to two proteins that may interact with each other, such as EA-β-Arrestin and ED-GLP-1R. The fusions can be stably expressed in a test cell line, such as the PathHunter CHO-K1 GLP1R β-Arrestin cells described below.
Independently, these fragment fusions have no β-gal activity; however, in solution or in a living cell, they can be brought together and complement to form an active β-gal enzyme due to the interaction between the fused proteins, thus generating a chemiluminescent signal in the presence of a suitable β-gal substrate.
In this experiment, PathHunter CHO-K1 GLP1R β-Arrestin cells from the assay kit were plated at a density of 1000 or 2000 cells/20 μl/well in a 384-well white/clear bottom plates (Greiner Cat #781098). Frozen cells were quickly thawed and 10 mL of cell plating medium (provided by the kit) was added to thawed cells. Cells were stored in a 37° C. incubator under 5% CO2 and kept for approximately 48 hours until ready to ran the assay.
Reference and test compounds were dissolved in 100% DMSO. 5× concentration of an agonist was prepared in serum free DMEM (Thermo Cat #11965). 5 μL of this solution was added to 20 μL cell medium in assay plate for a final top concentration of 10 μM. Plates were then incubated at 37° C. under 5% CO2 for 90 min.
Following 90 min incubation, detection reagents were made up by combining 1 part Galacton Star Substrate with 5 parts Emerald II™ Solution, and 19 parts of PathHunter Cell Assay Buffer, respectively. 12.5 μL detection reagent was added to each well. The plates were then incubated at room temperature in dark for 60 min. Plates were then read on Envision for 0.1 sec/well.
EC50 determinations were made from agonist dose-response curves analyzed with a curve fitting program using a 4-parameter logistic dose response equation.
Cells were plated at a density of 1000 or 2000 cells/20 μL/well. Frozen cells were quickly thawed and added to 10 mL of cell plating medium. Cells were stored in a 37° C. incubator under 5% CO2 and left for approximately 48 hours until ready to run the assay.
• 1) Reference agonist compound GLP1 (7-37): dissolved with DMSO to make 1 mM stock solutions, aliquoted and stored at −80° C. • 2) Test compounds (such as the compounds of the invention) came solubilized in 100% DMSO.
Prepare 10× concentration of an agonist in serum free DMEM, and add all solutions into the compound plate. 2.5 μL of this solution was added to 20 μL cell medium in assay plate for a final top concentration of 10 μM. Plates were incubated at 37° C. under 5% CO2 for 30 min. An additional 2.5 μL of Buffer was added to the entire plate for agonist mode and incubated at 37° C. for another 90 min.
Following 90 min incubation, detection reagents were made up as described. 12.5 μL was added to all wells. The plates were then incubated at room temperature in dark for 60 min. Plates were then read on Envision for 0.1 sec/well.
Data analysis: GraphPad Prism 6 was used for establishment of progression curve. EC50S or IC50s were determined by 4-parameter logistic dose response equation.

GLP1R, sequence (P43220 24-463): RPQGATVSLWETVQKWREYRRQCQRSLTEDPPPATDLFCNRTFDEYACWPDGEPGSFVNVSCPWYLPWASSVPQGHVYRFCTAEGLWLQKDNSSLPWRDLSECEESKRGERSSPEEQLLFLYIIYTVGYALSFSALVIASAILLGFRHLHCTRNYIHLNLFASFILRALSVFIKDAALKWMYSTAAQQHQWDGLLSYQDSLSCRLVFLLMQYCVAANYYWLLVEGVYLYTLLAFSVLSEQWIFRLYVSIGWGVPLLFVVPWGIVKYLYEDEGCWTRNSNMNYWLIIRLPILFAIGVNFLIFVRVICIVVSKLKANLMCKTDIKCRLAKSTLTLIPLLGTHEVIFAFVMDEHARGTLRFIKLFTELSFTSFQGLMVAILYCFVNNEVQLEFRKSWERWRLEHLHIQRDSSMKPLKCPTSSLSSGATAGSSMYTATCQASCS

Bmax (POC) | SMILES
10.9 ± 0.0317 | N#Cc1ccc(COc2cncc(C3CCN(Cc4nc5ccc(C(=O)O)cc5n4C[C@@H]4CCO4)CC3)n2)c(F)c1 [Compound 22, (S)-2-((4-(6-(4-cyano-2-fluorobenzyloxy)pyrazin-2-yl)piperidin-1-yl)methyl)-1-(oxetan-2-ylmethyl)-1 h-benzo[d]imidazole-6-carboxylic acid]
22.5 ± 4.32 | O=C(O)c1ccc2nc(CN3CC=C(c4cccc(OCc5ccc(-c6cccnc6)cc5)n4)CC3)n(C[C@@H]3CCO3)c2c1 [Compound 242, (S)-1-(oxetan-2-ylmethyl)-2-((6-((4-(pyridin-3-yl)benzyl)oxy)-3′,6′-dihydro-[2,4′-bipyridin]-1′(2′H)-yl)methyl)-1H-benzo[d]imidazole-6-carboxylic add]
18.2 ± 1.51 | N#Cc1ccc(COc2cncc(C3=CCN(Cc4nc5ccc(C(=O)O)cc5n4C[C@@H]4CCO4)CC3)n2)c(F)c1 [Compound 23, (S)-2-((4-(6-(4-cyano-2-fluorobenzyloxy)pyrazin-2-yl)-5,6-dihydropyridin-1(2H)-yl)methyl)-1-(oxetan-2-ylmethyl)-1 h-benzo[d]imidazole-6-carboxylic acid]
33.4 ± 3.78 | O=C(O)c1ccc2nc(CN3CC=C(c4cccc(OCc5ccc(Cl)cc5F)c4)CC3)n(C[C@@H]3CCO3)c2n1 [Compound 224, (S)-2-((4-(3-((4-chloro-2-fluorobenzyl)oxy)phenyl)-3,6-dihydropyridin-1(2H)-yl)methyl)-3-(oxetan-2-ylmethyl)-3H-imidazo[4,5-b]pyridine-5-carboxylic acid]
31.1 ± 4.67 | N#Cc1ccc(COc2nc(C3=CCN(Cc4nc5ccc(C(=O)O)cc5n4C[C@@H]4CCO4)CC3)ccc2F)c(F)c1 [Compound 222, (S)-2-((6-((4-cyano-2-fluorobenzyl)oxy)-5-fluoro-3′,6′-dihydro-[2,4′-bipyridin]-1′(2′H)-yl)methyl)-1-(oxetan-2-ylmethyl)-1H-benzo[d]imidazole-6-carboxylic acid]
19.9 ± 4.44 | O=C(O)c1ccc2nc(CN3CC=C(c4ccnc(OCc5ccc(Cl)cc5F)n4)CC3)n(C[C@@H]3CCO3)c2c1 [Compound 35, (S)-2-((4-(2-((4-chloro-2-fluorobenzyl)oxy)pyrimidin-4-yl)-3,6-dihydropyridin-1(2H)-yl)methyl)-1-(oxetan-2-ylmethyl)-1H-benzo[d]imidazole-6-carboxylic add]

The next lines start with the molecule.

SMILES | Bmax (POC)
O=C(O)c1ccc2nc(CN3CC=C(c4ccc(F)c(OCc5ccc(Cl)cc5F)c4)CC3)n(C[C@@H]3CCO3)c2n1 [Compound 236, (S)-2-((4-(3-((4-chloro-2-fluorobenzyl)oxy)-4-fluorophenyl)-5,6-dihydropyridin-1(2H)-yl)methyl)-3-(oxetan-2-ylmethyl)-3H-imidazo[4,5-b]pyridine-5-carboxylic acid] | 40.3 ± 4.10
O=C(O)c1ccc2nc(CN3CC=C(c4ccc(F)c(OCc5ccc(Cl)cc5F)c4)CC3)n(C[C@@H]3CCO3)c2c1F [Compound 238, (S)-2-((4-(3-((4-chloro-2-fluorobenzyl)oxy)-4-fluorophenyl)-3,6-dihydropyridin-1(2H)-yl)methyl)-7-fluoro-1-(oxetan-2-ylmethyl)-1H-benzo[d]imidazole-6-carboxylic acid] | 55.8 ± 14.1
O=C(O)c1ccc2nc(CN3CC=C(c4cccc(OCc5ccc(Cl)cc5F)c4)CC3)n(C[C@@H]3CCO3)c2c1F [Compound 237, (S)-2-((4-(3-((4-chloro-2-fluorobenzyl)oxy)phenyl)-3,6-dihydropyridin-1(2H)-yl)methyl)-7-fluoro-1-(oxetan-2-ylmethyl)-1H-benzo[d]imidazole-6-carboxylic acid] | 37.9 ± 4.66
O=C(O)c1ccc2nc(CN3CCC(c4cccc(OCc5ccc(Cl)cc5F)c4)CC3)n(C[C@@H]3CCO3)c2c1 [Compound 239, (S)-2-((4-(3-((4-chloro-2-fluorobenzyl)oxy)phenyl)piperidin-1-yl)methyl)-1-(oxetan-2-ylmethyl)-1H-benzo[d]imidazole-6-carboxylic acid] | 25.6 ± 5.31
